From US20220387398A1, “IMMUNE TO[…] AND POTENTIATORS” (priority 2019, published 2022)

Legend:
[1] = tested on: ITE degradation in mouse plasma; experiment: Inhibition of ITE degradation in mouse plasma by esterase inhibitors; format: biochemical; settings: for inhibition of ITE degradation (in words, rank): mouse plasma, 1 millimolar benzil, BNPP and tacrine, 0.5 millimolar rivastigmine, pre-incubated 60 minutes
Excerpt: Each inhibitor provided at least some protection from degradation.
FIGS. 3-7 show a mass balance analysis of ITE+ITC in the presence of each inhibitor.

[2] = mouse
Procedure: Levels of ITE and ITC in mouse plasma were determined by liquid chromatography-mass spectrometry (LC-MS). Standard curves were produced by serial dilution of ITE and ITE and used to convert ion counts to absolute concentrations (FIG. 1A).
Each inhibitor was tested independently for its ability to protect ITE from degradation in 0.5 milliliters of mouse plasma (FIG. 2A).

Compound	ITE protected from degradation ([1]; 0.5 mL mouse plasma, at 120 minutes, 0.5 millimolar rivastigmine pre-incubated 60 minutes)	inhibition of ITE degradation (in words, rank) [1]	ITE lost ([2]; 30 min)	ITE degraded ([2]; 60 min)
CCN(C)C(=O)Oc1cccc([C@H](C)N(C)C)c1 [Rivastigmine, rivastigmine]	~70%	best inhibitor of ITE degradation		
O=[N+]([O-])c1ccc(OP(=O)(O)Oc2ccc([N+](=O)[O-])cc2)cc1 [BNPP, bis-para-nitrophenylphosphate]		weaker inhibitors		
O=C(C(=O)c1ccccc1)c1ccccc1 [Benzil, benzil]		weakest single inhibitor		
COC(=O)c1csc(C(=O)c2c[nH]c3ccccc23)n1 [ITE, 2-(1 H-Indol-3-ylcarbonyl)-4-thiazolecarboxylic acid methyl ester]			over 60%	about 90%
Nc1c2c(nc3ccccc13)CCCC2 [Tacrine, tacrine]		weaker inhibitors		
